We go through 3 compounds from patent publication US6710048B2, “Pyrazine derivatives as modulators of tyrosine kinases” (Ortho-McNeil Pharmaceutical, Inc., priority 2000, dated 2004).

Like-named read-outs stand apart in the source and are kept apart here.

In assay [1] the test system is HeLa cervical adenocarcinoma. As to the kind of experiment: Cell proliferation assay (14C-thymidine incorporation), HeLa. Format: cell-based. The settings on record: Homo sapiens, read-out: Inhibition of cell proliferation IC50. On the procedure: (§1) The ability of a test compound to inhibit the proliferation of cell growth was determined by measuring incorporation of ^14C-labelled thymidine into newly synthesized DNA within the cells. This method was used on cell lines derived from carcinomas originating from several tissues such as HeLa cervical adenocarcinoma (American Type Culture Collection (ATCC), Virginia, Cat. #CCL-2), A375 malignant melanoma (ATCC CRL-1619), SK-OV-3 ovarian adenocarcinoma (ATCC HTB-77) HCT-116 colon carcinoma (CCL-247) and PC-3 prostate adenocarcinoma (ATCC CRL-1435). The method was also used on primary cells such as HUVEC endothelial cells (ATCC CRL-1730). In this way the effect of a compound on cell growth of cells with many different phenotypes can be determined. Cells were trypsinized and counted and 3000-8000 cells were added to each well of a 96-well CytoStar tissue culture treated scintillating microplate (Amersham #RPNQ0160) in complete medium in a volume of 100 μl. Cells were incubated for 24 hours in complete medium at 37° C. in an atmosphere containing 5% CO2.
(§2) Next, 1 μl of test compound in 100% DMSO was added to the wells of the plate. DMSO only was added to control wells. Cells were incubated for 24 more hours in complete medium at 37° C. in an atmosphere containing 5% CO2. Methyl ^14C-thymidine 56 mCi/mmol (NEN #NEC568 or Amersham #CFA532) was diluted in complete medium and 0.2 μCi/well was added to each well of the CytoStar plate in a volume of 20 μl. The plate was incubated for 24 hours at 37° C. plus 5% CO2 in drug plus ^14C-thymidine. The contents of the plate were discarded into a ^14C radioactive waste container by inverting the plate and the plate was washed twice with 200 μl PBS. 200 μl of PBS is then added to each well. The top of the plate was sealed with a transparent plate sealer and a white plate backing sealer (Packard #6005199) was applied to the bottom of the plate. The degree of Methyl ^14C-thymidine incorporation was quantified on a Packard Top Count.
In general terms: Uptake of a labelled nucleoside into DNA is a usual measure of proliferation.

Assay [2] has as its system HCT-116 colon carcinoma. As to the kind of experiment: Cell proliferation assay (14C-thymidine incorporation), HCT-116. Format: cell-based. The settings on record: Homo sapiens, read-out: Inhibition of cell proliferation IC50. On the procedure:
as §1, §2

Assay [3] has as its system MDA-MB-231. Briefly: Cell proliferation assay (14C-thymidine incorporation), MDA-MB-231. The settings on record: Homo sapiens, read-out: Inhibition of cell proliferation IC50. In kind it is cell-based. On the procedure:
as §1, §2

Assay [4] concerns PC-3 prostate adenocarcinoma. Briefly: Cell proliferation assay (14C-thymidine incorporation), PC-3. The settings on record: Homo sapiens, read-out: Inhibition of cell proliferation IC50. Format: cell-based. On the procedure:
as §1, §2

Assay [5] has as its target T1, VEGF-R (vascular endothelial growth factor receptor-2) (Rattus norvegicus, UniProt O08775).
T1 construct: polyhistidine (6xHis) (N)
As to the kind of experiment: VEGF-R screening assay (33P FlashPlate kinase assay). Format: biochemical. On the procedure: A kinase reaction mixture was prepared containing 50 mM Tris-HCl pH=8, 10 mM MgCl2, 0.1 mM NAPO4, 1 mM DTT, 10 μM ATP, 0.025 μM biotinylated peptide substrate and 0.8 μCuries per well ^33P-γ-ATP [2000-3000 Ci/mmol]. 70 μl of the kinase reaction mixture was dispensed into the well of a streptavidin coated FlashPlate™ (Cat. # SMP103, NEN, Boston, Mass.). Then 1 μl of test compound stock in 100% DMSO was added to the wells resulting in a final concentration of 1% DMSO in the reaction with a 100 μl final reaction volume. Next, soluble rat tyrosine kinase containing an N-terminal 6×HIS tag was diluted in 50 mM Tris-HCl pH=8.0, 0.1% BSA at a concentration of 5 ng per microliter and 30 μl (150 ng enzyme per test well) was added to each well to initiate the reaction. The reaction was incubated for one hour at 30° C. At the end of the 1-hour incubation, the reaction was terminated by aspirating the reaction mixture from the plate and washing the wells twice with PBS containing 100 mM EDTA. The PLCI biotinylated peptide substrate becomes immobilized on the Flashplate™ and the incorporation of ^33P-γ-ATP was measured by reading the plate on a scintillation counter. Inhibition of the enzymatic activity of the VEGF-R was measured by observing a reduced amount of ^33P-γ-ATP incorporated into the immobilized peptide.
(§3) The term n.d. means not tested.
(§4) Assays to test compound inhibition of other kinases were preformed using methods that measure the amount of phosphorylation of a biotinylated peptide substrate. Biotinylated peptide substrates were selected from the literature as appropriate for the enzyme being evaluated. The general procedure used to assay for kinase activity is as follows: A kinase reaction mix was prepared in 50 mM Tris-HCl pH=8, 10 mM MgCl2, 0.1 mM NaVO4, 1 mM DTT, 5-10 μM ATP, 0.25-1 μM biotinylated peptide substrate, 0.2-0.8 μCuries per well ^33P-γ-ATP [2000-3000 Ci/mmol]. Assay conditions vary slightly for each protein kinase, for example, insulin receptor kinase requires 10 mM MnCl2 for activity and Calmodulin-dependent protein kinase requires calmodulin and 2 mM CaCl2. The reaction mixture was dispensed into the wells of a streptavidin coated Flashplate and 1 μl drug stock in 100% DMSO was added to a 100 μl reaction volume resulting in a final concentration of 1% DMSO in the reaction. Enzyme was diluted in 50 mM Tris-HCl pH=8.0, 0.1% BSA and added to each well. The reaction was incubated for one hour at 30° C. in the presence of compound. After one hour the reaction mix was aspirated from the plate and the plate was washed with PBS containing 100 mM EDTA. The plate was read on a scintillation counter to determine ^33P-γ-ATP incorporated into the immobilized peptide. Test compounds were assayed in duplicate at 8 concentrations [100 tM, 10 μM, 1 μM, 100 nM, 10 nM, 1 nM, 100 μM, 10 μM]. A maximum and minimum signal for the assay was determined on each plate. The IC50 was calculated from the dose response curve of the percent inhibition of the maximum signal in the assay according to the formula [max signal−background/test compound signal−background (100)=% inhibition] by graphing the percent inhibition against the log concentration of test compound. Known inhibitor compounds appropriate for the kinase being assayed were also included on each plate.
VEGF-R (vascular endothelial growth factor receptor-2) is a fusion protein containing a polyhistidine tag at the N-terminus followed by amino acids 786-1343 of the rat VEGF-R2 kinase domain (GenBank Accession #U93306). CDK1 (cyclin dependent kinase 1) is isolated from insect cells expressing both the human CDK1 catalytic subunit and its positive regulatory subunit cyclin B (New England Biolabs, Beverly, Mass., Cat. #6020). CDK4 (cyclin dependent kinase 4) contains amino acids 769 to 921 of the mouse […] protein found in the GST-retinoblastoma protein construct (Santa Cruz Biotechnology, Santa Cruz, Calif.; Cat. #SC-4112). […]

The target in assay [6] is T2, CDK1 (cyclin dependent kinase 1) / cyclin B (Homo sapiens, UniProt P06493).
T2 construct: purchased New England Biolabs 6020; host or cells: insect cells
Briefly: CDK1 kinase assay. In kind it is biochemical. On the procedure:
as §3
as §4, with “Test compounds were assayed in duplicate at 8 concentrations [100 tM, 10 μM, 1 μM, 100 nM, 10 nM, 1 nM, 100 μM, 10 μM].” left out
VEGF-R (vascular endothelial growth factor receptor-2) is a fusion protein containing a polyhistidine tag at the N-terminus followed by amino acids 786-1343 of the rat VEGF-R2 kinase domain (GenBank Accession #U93306). CDK1 (cyclin dependent kinase 1) is isolated from insect cells expressing both the human CDK1 catalytic subunit and its positive regulatory subunit cyclin B (New England Biolabs, Beverly, Mass., Cat. #6020). CDK4 (cyclin dependent kinase 4) contains amino acids 769 to 921 of the mouse […] protein found in the GST-retinoblastoma protein construct (Santa Cruz Biotechnology, Santa Cruz, Calif.; Cat. #SC-4112). Insulin Receptor Kinase consists of residues 941-1313 of the cytoplasmic domain of the beta-subunit of the human insulin receptor (BIOMOL, Plymouth Meeting, Pa., Cat. #SE-195). Protein Kinase A is the catalytic subunit of cAMP dependent protein kinase-A purified from bovine heart (Upstate Biotech, Lake Placid, N.Y., Cat#14-114). PKC (protein kinase-C) is the gamma or beta isoform of the human protein produced in insect cells (BIOMOL, Plymouth Meeting, Pa., Cat. #SE-143). Casein Kinase 1 is a truncation at amino acid 318 of the C-terminal portion of the rat CK1 delta isoform produced in E.coli (New England Biolabs, Beverly, Mass., Cat. #6030). Casein Kinase 2 includes the alpha and beta subunits of the human CK2 protein produced in E.coli (New England Biolabs, Beverly, Mass., Cat. #6010). Calmodulin Kinase (calmodulin-dependent protein kinase 2) is a truncated version of the alpha subunit of the rat protein produced in insect cells (New England Biolabs, Beverly, Mass., Cat. #6060). Glycogen Synthase Kinase-3 is the beta isoform of the rabbit enzyme produced in E. coli (New England Biolabs, Beverly, Mass., Cat. #6040). MAP Kinase is the rat ERK-2 isoform containing a polyhistidine tag at the N-terminus produced in E. coli. and activated by phosphorylation with MEK1 prior to purification (BIOMOL, Plymouth Meeting, Pa., Cat. #SE-137). EGFR (epidermal growth factor receptor) is purified from human A431 cell membranes (Sigma, St. Louis, Mo., Cat.# E3641). […]

The target of assay [7] is FGF-R2 (Homo sapiens, UniProt P21802). Briefly: FGF-R2 kinase selectivity assay. In kind it is biochemical. The note with it: Table 4 kinase selectivity; read-out: IC50, Assay 15 FGF-R2. On the procedure:
as §4

Assay [8] deals with HER2 (Homo sapiens, UniProt P04626). Briefly: HER2 kinase selectivity assay. In kind it is biochemical. The settings on record: Table 4 kinase selectivity; read-out: IC50, Assay 16 HER2. On the procedure: as §4
Sequence of HER2 (P04626 23-1255, species assumed): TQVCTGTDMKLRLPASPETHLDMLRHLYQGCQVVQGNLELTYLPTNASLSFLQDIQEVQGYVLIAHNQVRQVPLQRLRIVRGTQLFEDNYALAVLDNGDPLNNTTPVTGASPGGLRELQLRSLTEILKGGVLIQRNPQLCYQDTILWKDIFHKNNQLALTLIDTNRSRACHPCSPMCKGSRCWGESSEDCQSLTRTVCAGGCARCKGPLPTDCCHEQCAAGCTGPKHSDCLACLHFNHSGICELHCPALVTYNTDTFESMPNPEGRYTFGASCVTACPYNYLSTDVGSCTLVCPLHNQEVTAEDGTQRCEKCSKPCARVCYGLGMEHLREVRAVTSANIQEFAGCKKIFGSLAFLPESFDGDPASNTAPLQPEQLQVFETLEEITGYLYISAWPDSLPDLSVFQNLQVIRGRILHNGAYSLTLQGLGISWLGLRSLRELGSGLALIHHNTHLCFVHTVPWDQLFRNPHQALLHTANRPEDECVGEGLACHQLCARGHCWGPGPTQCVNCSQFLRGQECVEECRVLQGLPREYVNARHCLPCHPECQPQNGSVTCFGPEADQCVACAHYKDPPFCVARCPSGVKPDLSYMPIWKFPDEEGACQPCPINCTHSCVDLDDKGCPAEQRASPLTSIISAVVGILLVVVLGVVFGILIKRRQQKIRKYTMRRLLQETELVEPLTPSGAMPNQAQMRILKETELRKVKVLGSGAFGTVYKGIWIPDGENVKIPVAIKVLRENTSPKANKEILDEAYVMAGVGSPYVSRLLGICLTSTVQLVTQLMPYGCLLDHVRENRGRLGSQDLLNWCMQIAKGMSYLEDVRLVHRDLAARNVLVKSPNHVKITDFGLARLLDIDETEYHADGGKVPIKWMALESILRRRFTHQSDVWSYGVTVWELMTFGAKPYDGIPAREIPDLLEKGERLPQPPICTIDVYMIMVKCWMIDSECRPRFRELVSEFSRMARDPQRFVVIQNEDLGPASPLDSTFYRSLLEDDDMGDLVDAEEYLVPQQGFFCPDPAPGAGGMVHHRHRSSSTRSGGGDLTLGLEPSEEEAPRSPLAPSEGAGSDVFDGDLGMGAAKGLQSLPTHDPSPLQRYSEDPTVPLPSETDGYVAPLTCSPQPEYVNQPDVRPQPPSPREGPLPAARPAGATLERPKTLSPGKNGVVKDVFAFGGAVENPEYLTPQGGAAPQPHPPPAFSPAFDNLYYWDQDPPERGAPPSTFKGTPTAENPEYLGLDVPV

T2 sequence (P06493 whole entry): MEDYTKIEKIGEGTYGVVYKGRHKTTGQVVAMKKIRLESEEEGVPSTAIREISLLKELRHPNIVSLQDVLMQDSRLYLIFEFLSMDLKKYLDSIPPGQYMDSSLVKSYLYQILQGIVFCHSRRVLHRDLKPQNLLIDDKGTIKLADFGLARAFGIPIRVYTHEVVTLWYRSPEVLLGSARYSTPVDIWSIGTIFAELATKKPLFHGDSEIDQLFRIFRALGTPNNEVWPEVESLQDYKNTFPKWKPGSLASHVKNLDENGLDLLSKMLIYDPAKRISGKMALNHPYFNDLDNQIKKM
T2 sequence (P14635 whole entry partner): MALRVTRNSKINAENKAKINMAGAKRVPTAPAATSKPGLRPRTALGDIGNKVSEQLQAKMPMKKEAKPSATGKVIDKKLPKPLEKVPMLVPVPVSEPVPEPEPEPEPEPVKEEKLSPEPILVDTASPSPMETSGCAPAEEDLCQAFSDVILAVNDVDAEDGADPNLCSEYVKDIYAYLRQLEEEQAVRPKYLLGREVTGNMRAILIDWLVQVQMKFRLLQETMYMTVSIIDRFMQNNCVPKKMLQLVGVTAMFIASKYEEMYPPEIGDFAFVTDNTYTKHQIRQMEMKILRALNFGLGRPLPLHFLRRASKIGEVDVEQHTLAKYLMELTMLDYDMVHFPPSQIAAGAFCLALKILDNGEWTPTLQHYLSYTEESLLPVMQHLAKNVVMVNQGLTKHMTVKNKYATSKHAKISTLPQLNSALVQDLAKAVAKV
T1 sequence (O08775 786-1343): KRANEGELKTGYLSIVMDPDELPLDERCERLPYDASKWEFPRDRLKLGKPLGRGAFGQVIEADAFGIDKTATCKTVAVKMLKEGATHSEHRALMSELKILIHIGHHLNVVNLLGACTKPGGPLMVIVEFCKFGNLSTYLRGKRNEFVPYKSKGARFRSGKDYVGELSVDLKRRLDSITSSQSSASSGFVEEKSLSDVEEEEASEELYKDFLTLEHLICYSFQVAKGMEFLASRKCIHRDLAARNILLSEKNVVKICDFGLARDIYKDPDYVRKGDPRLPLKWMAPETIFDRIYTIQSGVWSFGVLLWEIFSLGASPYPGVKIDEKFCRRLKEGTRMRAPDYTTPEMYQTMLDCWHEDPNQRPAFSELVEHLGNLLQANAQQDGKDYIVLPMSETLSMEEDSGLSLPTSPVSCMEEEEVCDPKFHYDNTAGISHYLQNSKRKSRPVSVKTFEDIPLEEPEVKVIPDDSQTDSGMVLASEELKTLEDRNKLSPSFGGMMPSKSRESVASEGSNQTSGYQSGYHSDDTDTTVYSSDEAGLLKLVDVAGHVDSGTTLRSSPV
Sequence of FGF-R2 (P21802 22-821, species assumed): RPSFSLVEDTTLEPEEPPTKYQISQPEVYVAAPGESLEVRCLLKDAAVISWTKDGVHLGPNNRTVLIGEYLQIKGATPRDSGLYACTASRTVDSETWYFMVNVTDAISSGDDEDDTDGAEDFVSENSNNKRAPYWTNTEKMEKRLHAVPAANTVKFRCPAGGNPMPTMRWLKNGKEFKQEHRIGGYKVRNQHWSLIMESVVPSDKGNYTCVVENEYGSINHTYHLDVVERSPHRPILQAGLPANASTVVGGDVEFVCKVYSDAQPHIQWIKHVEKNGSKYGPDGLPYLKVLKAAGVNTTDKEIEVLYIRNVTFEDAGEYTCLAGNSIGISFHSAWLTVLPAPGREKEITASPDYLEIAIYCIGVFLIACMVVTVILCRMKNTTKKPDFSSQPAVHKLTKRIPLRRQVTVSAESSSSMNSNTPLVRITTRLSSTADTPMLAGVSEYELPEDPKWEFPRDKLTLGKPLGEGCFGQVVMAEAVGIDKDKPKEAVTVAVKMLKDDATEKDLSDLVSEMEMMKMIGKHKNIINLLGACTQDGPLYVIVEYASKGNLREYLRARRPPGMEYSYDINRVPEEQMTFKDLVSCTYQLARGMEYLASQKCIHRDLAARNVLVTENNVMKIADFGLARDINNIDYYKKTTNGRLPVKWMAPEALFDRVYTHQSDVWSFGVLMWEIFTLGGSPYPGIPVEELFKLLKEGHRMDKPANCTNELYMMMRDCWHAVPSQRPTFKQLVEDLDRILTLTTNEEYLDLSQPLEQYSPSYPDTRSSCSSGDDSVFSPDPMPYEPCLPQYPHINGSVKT

Regarding `Clc1cccc(Nc2cncc(-c3cncc(NCCCc4ccncc4)c3)n2)c1` [Cmd 71, N-(3-chlorophenyl)-6-[5-[[3-(4-pyridinyl)propyl]amino]-3-pyridinyl]-2-pyrazinamine], the IC50 in assay [1] amounted to 3800 nM; in assay [2] it was 3290 nM; in assay [3] it was 1880 nM; in assay [4] it was 3200 nM.
For the compound `Clc1cccc(Nc2cncc(-c3cncc(NCCCc4cccnc4)c3)n2)c1` [Cmd 72, N-(3-chlorophenyl)-6-[5-[[3-(3-pyridinyl)propyl]amino]-3-pyridinyl]-2-pyrazinamine], the IC50 was found to be 5700 nM in assay [1], 4970 nM in assay [2], 2570 nM in assay [3] and 2580 nM in assay [4].
For the compound `Clc1cccc(Nc2cncc(-c3cncc(NCCCn4ccnc4)c3)n2)c1` [Cmd 77], the IC50 in assay [5] (Table 4 kinase selectivity, read-out: IC50, Assay 1 VEGF-R) was 30 nM; in assay [5] (Tables 1-3, >10 or >100 = no 50% inhibition at highest dose tested, read-out: VEGF-R IC50), 30 nM; in assay [6] (Table 4 kinase selectivity, 10 = approximate value, read-out: IC50, Assay 2 CDK1), about 10000 nM; in assay [6] (Tables 1-3, >10 or >100 = no 50% inhibition at highest dose tested, read-out: CDK IC50), over 10000 nM; in assay [7] it was 221 nM; in assay [8] it was 966 nM.
